Measurements reported in patent publication US20160326142A1, “PYRAZOLE CARBOXAMIDE COMPOUNDS, COMPOSITIONS AND METHODS OF USE” (Genentech, Inc., priority 2012, published 2016).

The compounds below were run against T1, ITK (Homo sapiens, UniProt Q08881) (assay: ITK enzyme assay (Caliper or LCMS peptide phosphorylation)). Settings: purified ITK (Invitrogen PV3875), 20 μM ATP, Ki by Morrison's quadratic equation.
T1 construct: purchased Invitrogen PV3875
T1 sequence (Q08881 1-620): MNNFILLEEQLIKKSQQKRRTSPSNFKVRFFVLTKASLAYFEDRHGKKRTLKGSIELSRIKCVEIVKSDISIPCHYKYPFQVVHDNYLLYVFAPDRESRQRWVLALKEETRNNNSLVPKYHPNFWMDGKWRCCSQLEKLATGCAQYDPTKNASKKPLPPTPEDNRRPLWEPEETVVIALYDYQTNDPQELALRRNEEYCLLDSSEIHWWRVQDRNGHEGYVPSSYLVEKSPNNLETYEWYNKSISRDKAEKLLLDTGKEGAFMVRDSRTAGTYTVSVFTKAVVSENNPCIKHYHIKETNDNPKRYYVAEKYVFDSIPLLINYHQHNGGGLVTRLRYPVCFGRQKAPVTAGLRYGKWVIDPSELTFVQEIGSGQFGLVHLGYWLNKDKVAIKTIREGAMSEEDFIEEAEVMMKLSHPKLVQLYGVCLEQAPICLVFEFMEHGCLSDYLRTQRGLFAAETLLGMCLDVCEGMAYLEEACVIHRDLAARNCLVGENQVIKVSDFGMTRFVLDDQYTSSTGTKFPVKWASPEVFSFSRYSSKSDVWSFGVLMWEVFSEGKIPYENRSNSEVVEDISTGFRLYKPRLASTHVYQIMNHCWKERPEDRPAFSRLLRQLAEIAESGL
Type: biochemical
Procedure: The ability of purified ITK (Invitrogen PV3875) to catalyze peptide phosphorylation is monitored using a Caliper LabChip 3000 microfluidic unit (Caliper assay) or by liquid chromatography-mass spectrometry (LCMS) using a Waters Acquity system (LCMS assay). […] Reactions are quenched by the addition of 2,2′,2″,2′″-(ethane-1,2-diyldinitrilo)tetraacetic acid (50 mM final). Non-phosphorylated substrate and phosphorylated product peptides are separated and quantified using a Caliper LabChip 3000 instrument. […] Reactions are quenched by the addition of trichloroacetic acid (5% v/v final). Non-phosphorylated substrate and phosphorylated product peptides are separated by ultra performance LC and detected by a coupled triple quadrupole MS device applying multiple reaction monitoring (MRM) for quantification. The area of the MRM-extracted mass signal is used to assess the inhibition by test compounds. Equilibrium dissociation constant (Ki) values for ITK inhibitors are calculated from plots of activity vs. inhibitor concentration using Morrison's quadratic equation that accounts for the potential of tight binding, and by also applying the conversion factor that accounts for competitive inhibition and the concentration of ATP used in the assay relative to its apparent Michaelis constant (Km,app).

Structure (SMILES) | Ki
CC1(C)CCc2c(C(=O)Nc3cnn(C(CCN)c4ccccc4)c3)n[nH]c2C1 (single isomer, unassigned) [Example 42a, N-(1-(3-amino-1-phenylpropyl)-1H-pyrazol-4-yl)-6,6-dimethyl-4,5,6,7-tetrahydro-1H-indazole-3-carboxamide] | 10 nM
CC1(C)CCc2c(C(=O)Nc3cnn(C(CCN)c4ccccc4)c3)n[nH]c2C1 (single isomer, unassigned) [Example 42b, N-(1-(3-amino-1-phenylpropyl)-1H-pyrazol-4-yl)-6,6-dimethyl-4,5,6,7-tetrahydro-1H-indazole-3-carboxamide] | 0.9 nM
CN1CCC(C(c2ccccc2)n2cc(NC(=O)c3n[nH]c4c3CCC(C)(C)C4)cn2)CC1 (single isomer, unassigned) [Example 43a, 6,6-dimethyl-N-(1-((1-methylpiperidin-4-yl)(phenyl)methyl)-1H-pyrazol-4-yl)-4,5,6,7-tetrahydro-1H-indazole-3-carboxamide] | 0.2 nM
CN1CCC(C(c2ccccc2)n2cc(NC(=O)c3n[nH]c4c3CCC(C)(C)C4)cn2)CC1 (single isomer, unassigned) [Example 43b, 6,6-dimethyl-N-(1-((1-methylpiperidin-4-yl)(phenyl)methyl)-1H-pyrazol-4-yl)-4,5,6,7-tetrahydro-1H-indazole-3-carboxamide] | 6.2 nM
CC1(C)CCc2c(C(=O)Nc3cnn(C(c4ccccc4)C4(F)CCNCC4)c3)n[nH]c2C1 (single isomer, unassigned) [Example 44a, N-(1-((4-fluoropiperidin-4-yl)(phenyl)methyl)-1H-pyrazol-4-yl)-6,6-dimethyl-4,5,6,7-tetrahydro-1H-indazole-3-carboxamide] | 6 nM
CC1(C)CCc2c(C(=O)Nc3cnn(C(c4ccccc4)C4(F)CCNCC4)c3)n[nH]c2C1 (single isomer, unassigned) [Example 44b, N-(1-((4-fluoropiperidin-4-yl)(phenyl)methyl)-1H-pyrazol-4-yl)-6,6-dimethyl-4,5,6,7-tetrahydro-1H-indazole-3-carboxamide] | 0.2 nM
CC1(C)CCc2c(C(=O)Nc3cnn(C(c4ccccc4)C4CN(S(C)(=O)=O)C4)c3)n[nH]c2C1 (single isomer, unassigned) [Example 45a, 6,6-dimethyl-N-(1-((1-(methylsulfonyl)azetidin-3-yl)(phenyl)methyl)-1H-pyrazol-4-yl)-4,5,6,7-tetrahydro-1H-indazole-3-carboxamide] | 370 nM
CC1(C)CCc2c(C(=O)Nc3cnn(C(c4ccccc4)C4CN(S(C)(=O)=O)C4)c3)n[nH]c2C1 (single isomer, unassigned) [Example 45b, 6,6-dimethyl-N-(1-((1-(methylsulfonyl)azetidin-3-yl)(phenyl)methyl)-1H-pyrazol-4-yl)-4,5,6,7-tetrahydro-1H-indazole-3-carboxamide] | 48 nM
Cc1cccc(C(C2CNC2)n2cc(NC(=O)c3n[nH]c4c3CCC(C)(C)C4)cn2)c1 (single isomer, unassigned) [Example 47a, N-(1-(azetidin-3-yl(m-tolyl)methyl)-1H-pyrazol-4-yl)-6,6-dimethyl-4,5,6,7-tetrahydro-1H-indazole-3-carboxamide] | 2 nM
Cc1cccc(C(C2CNC2)n2cc(NC(=O)c3n[nH]c4c3CCC(C)(C)C4)cn2)c1 (single isomer, unassigned) [Example 47b, N-(1-(azetidin-3-yl(m-tolyl)methyl)-1H-pyrazol-4-yl)-6,6-dimethyl-4,5,6,7-tetrahydro-1H-indazole-3-carboxamide] | 9 nM
CC1(C)CCc2c(C(=O)Nc3cnn(C(c4ccccc4)C4(F)CNC4)c3)n[nH]c2C1 (single isomer, unassigned) [Example 49a, N-(1-((3-fluoroazetidin-3-yl)(phenyl)methyl)-1H-pyrazol-4-yl)-6,6-dimethyl-4,5,6,7-tetrahydro-1H-indazole-3-carboxamide] | 10 nM
CC1(C)CCc2c(C(=O)Nc3cnn(C(c4ccccc4)C4(F)CNC4)c3)n[nH]c2C1 (single isomer, unassigned) [Example 49b, N-(1-((3-fluoroazetidin-3-yl)(phenyl)methyl)-1H-pyrazol-4-yl)-6,6-dimethyl-4,5,6,7-tetrahydro-1H-indazole-3-carboxamide] | 2 nM
O=C(Nc1cnn(Cc2ccccc2)c1)c1n[nH]c2c1CCC1(CCCO1)C2 (single isomer, unassigned) [Example 50a, N-(1-benzyl-1H-pyrazol-4-yl)-1′,4,4′,5,5′,7′-hexahydro-3H-spiro[furan-2,6′-indazole]-3′-carboxamide] | 260 nM
O=C(Nc1cnn(Cc2ccccc2)c1)c1n[nH]c2c1CCC1(CCCO1)C2 (single isomer, unassigned) [Example 50b, N-(1-benzyl-1H-pyrazol-4-yl)-1′,4,4′,5,5′,7′-hexahydro-3H-spiro[furan-2,6′-indazole]-3′-carboxamide] | 620 nM
CC1(O)CCc2c(C(=O)Nc3cnn(Cc4ccccc4)c3)n[nH]c2C1 (single isomer, unassigned) [Example 51a, N-(1-benzyl-1H-pyrazol-4-yl)-6-hydroxy-6-methyl-4,5,6,7-tetrahydro-1H-indazole-3-carboxamide] | 160 nM
CN(C)CCC(c1ccccc1)n1cc(NC(=O)c2n[nH]c3c2CC2CC2(C)C3)cn1 (single isomer, unassigned) [Example 52a, N-(1-(3-(dimethylamino)-1-phenylpropyl)-1H-pyrazol-4-yl)-5a-methyl-1,4,4a,5,5a,6-hexahydrocyclopropa[f]indazole-3-carboxamide] | 0.2 nM
CN(C)CCC(c1ccccc1)n1cc(NC(=O)c2n[nH]c3c2CC2CC2(C)C3)cn1 (single isomer, unassigned) [Example 52b, N-(1-(3-(dimethylamino)-1-phenylpropyl)-1H-pyrazol-4-yl)-5a-methyl-1,4,4a,5,5a,6-hexahydrocyclopropa[f]indazole-3-carboxamide] | 17 nM
CN(C)CCC(c1ccccc1)n1cc(NC(=O)c2n[nH]c3c2CC2CC2(C)C3)cn1 (single isomer, unassigned) [Example 52c, N-(1-(3-(dimethylamino)-1-phenylpropyl)-1H-pyrazol-4-yl)-5a-methyl-1,4,4a,5,5a,6-hexahydrocyclopropa[f]indazole-3-carboxamide] | 2 nM
CN(C)CCC(c1ccccc1)n1cc(NC(=O)c2n[nH]c3c2CC2CC2(C)C3)cn1 (single isomer, unassigned) [Example 52d, N-(1-(3-(dimethylamino)-1-phenylpropyl)-1H-pyrazol-4-yl)-5a-methyl-1,4,4a,5,5a,6-hexahydrocyclopropa[f]indazole-3-carboxamide] | 100 nM
CC1(C)CCc2c(C(=O)Nc3cnn(C(CO)c4ccccc4)c3)n[nH]c2C1 (single isomer, unassigned) [Example 53a, N-(1-(2-hydroxy-1-phenylethyl)-1H-pyrazol-4-yl)-6,6-dimethyl-4,5,6,7-tetrahydro-1H-indazole-3-carboxamide] | 5 nM
CC1(C)CCc2c(C(=O)Nc3cnn(C(CO)c4ccccc4)c3)n[nH]c2C1 (single isomer, unassigned) [Example 53b, N-(1-(2-hydroxy-1-phenylethyl)-1H-pyrazol-4-yl)-6,6-dimethyl-4,5,6,7-tetrahydro-1H-indazole-3-carboxamide] | 29 nM
CCC(c1cccnc1)n1cc(NC(=O)c2n[nH]c3c2CCC(C)(C)C3)cn1 (single isomer, unassigned) [Example 54a, 6,6-dimethyl-N-(1-(1-(pyridin-3-yl)propyl)-1H-pyrazol-4-yl)-4,5,6,7-tetrahydro-1H-indazole-3-carboxamide] | 1 nM
CCC(c1cccnc1)n1cc(NC(=O)c2n[nH]c3c2CCC(C)(C)C3)cn1 (single isomer, unassigned) [Example 54b, 6,6-dimethyl-N-(1-(1-(pyridin-3-yl)propyl)-1H-pyrazol-4-yl)-4,5,6,7-tetrahydro-1H-indazole-3-carboxamide] | 6 nM
CC1(C)CCc2c(C(=O)Nc3cnn(C(c4ccccc4)C(C)(C)O)c3)n[nH]c2C1 (single isomer, unassigned) [Example 55a, N-(1-(2-hydroxy-2-methyl-1-phenylpropyl)-1H-pyrazol-4-yl)-6,6-dimethyl-4,5,6,7-tetrahydro-1H-indazole-3-carboxamide] | 5 nM
